Assays:
HEK293 cells [1] = assay: Preliminary screening as mRNA vectors, EGFP mRNA transfection of HEK293 cells; assay type: cell-based; details: HEK293 cells, 96-well plates, EGFP mRNA 50 ng per well; percentage of GFP fluorescent cells relative to total number of cells (Hoechst)
How it was run: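 Each well of HEK293 cells received 50 ng of EGFP mRNA. Efficiency was expressed as percent GFP-expressing cells over Hoechst-defined total cell number.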

HEK293 cells [2] = assay: Preliminary screening as DNA vectors, GFP transfection of HEK293 cells; assay type: cell-based; details: HEK293 cells; lipid/DOPE liposome with 75 ng plasmid DNA (psin-EGFP-IRES-Puro); number of cells expressing GFP divided by total number of nuclei (Hoechst)
How it was run: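 Lipid + DOPE liposomes (NaOAc, pH 5.6) complexed w/ 75 ng psin-EGFP-IRES-Puro, 30 min RT; added to 3-5×10^4 HEK293/well, 37° C. Hoechst 0.2 μg/mL at 20-24 h, imaged after further 20-24 h. Efficiency = GFP+ cells / total nuclei.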

Row | SMILES | Absolute mRNA transfection efficiency in HEK293 cells (HEK293 cells [1]) | Absolute DNA transfection efficiency in HEK293 cells (HEK293 cells [2])
1 | CCCCCCCCCCCSc1nc(NCCN(CC)CC)nc(SCCCCCCCCCC)n1 [Compound S10S11D7] | 1.8% | 7.3%
2 | CCCCCCCCCCCSc1nc(NCCCN2CCOCC2)nc(SCCCCCCCCCC)n1 [Compound S10S11D8] | 8.3% | 16.4%
3 | CCCCCCCCCCCSc1nc(NCCCN2CCN(C)CC2)nc(SCCCCCCCCCC)n1 [Compound S10S11D9] | 60.6% | 13.6%
4 | CCCCCCCCCCCSc1nc(NCC2CCN(C)CC2)nc(SCCCCCCCCCC)n1 [Compound S10S11D10] | 93.7% | 13.3%
5 | CCCCCCCCCCCCSc1nc(NCCN(C)C)nc(SCCCCCCCCCC)n1 [Compound S10S12D1] | 0.0% | 6.6%
6 | CCCCCCCCCCCCSc1nc(NCCN2CCOCC2)nc(SCCCCCCCCCC)n1 [Compound S10S12D2] | 0.0% | 2.4%
7 | CCCCCCCCCCCCSc1nc(NCCN2CCCC2)nc(SCCCCCCCCCC)n1 [Compound S10S12D3] | 7.6% | 8.2%
8 | CCCCCCCCCCCCSc1nc(NCCN2CCCCC2)nc(SCCCCCCCCCC)n1 [Compound S10S12D4] | 3.4% | 12.0%
9 | CCCCCCCCCCCCSc1nc(NCCN2CCN(C)CC2)nc(SCCCCCCCCCC)n1 [Compound S10S12D5] | 33.5% | 9.8%
10 | CCCCCCCCCCCCSc1nc(NCCCN(C)C)nc(SCCCCCCCCCC)n1 [Compound S10S12D6] | 82.4% | 16.2%
11 | CCCCCCCCCCCCSc1nc(NCCN(CC)CC)nc(SCCCCCCCCCC)n1 [Compound S10S12D7] | 0.0% | 7.2%
12 | CCCCCCCCCCCCSc1nc(NCCCN2CCOCC2)nc(SCCCCCCCCCC)n1 [Compound S10S12D8] | 5.4% | 20.9%
13 | CCCCCCCCCCCCSc1nc(NCCCN2CCN(C)CC2)nc(SCCCCCCCCCC)n1 [Compound S10S12D9] | 53.7% | 28.1%
14 | CCCCCCCCCCCCSc1nc(NCC2CCN(C)CC2)nc(SCCCCCCCCCC)n1 [Compound S10S12D10] | 91.0% | 13.7%
15 | CCCCCCCCCCCCCCSc1nc(NCCN(C)C)nc(SCCCCCCCCCC)n1 [Compound S10S14D1] | 0.1% | 8.5%
16 | CCCCCCCCCCCCCCSc1nc(NCCN2CCOCC2)nc(SCCCCCCCCCC)n1 [Compound S10S14D2] | 0.2% | 1.5%

Row | SMILES | Absolute mRNA transfection efficiency in HEK293 cells (HEK293 cells [1]) | Absolute DNA transfection efficiency in HEK293 cells (HEK293 cells [2])
17 | CCCCCCCCCCCCCCSc1nc(NCCN2CCCC2)nc(SCCCCCCCCCC)n1 [Compound S10S14D3] | 0.6% | 7.9%
18 | CCCCCCCCCCCCCCSc1nc(NCCN2CCCCC2)nc(SCCCCCCCCCC)n1 [Compound S10S14D4] | 0.2% | 5.9%
19 | CCCCCCCCCCCCCCSc1nc(NCCN2CCN(C)CC2)nc(SCCCCCCCCCC)n1 [Compound S10S14D5] | 12.9% | 15.7%
20 | CCCCCCCCCCCCCCSc1nc(NCCCN(C)C)nc(SCCCCCCCCCC)n1 [Compound S10S14D6] | 48.6% | 26.9%
21 | CCCCCCCCCCCCCCSc1nc(NCCN(CC)CC)nc(SCCCCCCCCCC)n1 [Compound S10S14D7] | 1.3% | 2.6%
22 | CCCCCCCCCCCCCCSc1nc(NCCCN2CCOCC2)nc(SCCCCCCCCCC)n1 [Compound S10S14D8] | 7.5% | 18.9%
23 | CCCCCCCCCCCCCCSc1nc(NCCCN2CCN(C)CC2)nc(SCCCCCCCCCC)n1 [Compound S10S14D9] | 5.7% | 3.9%
24 | CCCCCCCCCCCCCCSc1nc(NCC2CCN(C)CC2)nc(SCCCCCCCCCC)n1 [Compound S10S14D10] | 37.7% | 23.0%
25 | CCCCCCCCCCCCCCCSc1nc(NCCN(C)C)nc(SCCCCCCCCCC)n1 [Compound S10S15D1] | 0.0% | 6.8%
26 | CCCCCCCCCCCCCCCSc1nc(NCCN2CCOCC2)nc(SCCCCCCCCCC)n1 [Compound S10S15D2] | 0.7% | 7.7%
27 | CCCCCCCCCCCCCCCSc1nc(NCCN2CCCC2)nc(SCCCCCCCCCC)n1 [Compound S10S15D3] | 19.6% | 7.6%
28 | CCCCCCCCCCCCCCCSc1nc(NCCN2CCCCC2)nc(SCCCCCCCCCC)n1 [Compound S10S15D4] | 0.7% | 7.5%
29 | CCCCCCCCCCCCCCCSc1nc(NCCN2CCN(C)CC2)nc(SCCCCCCCCCC)n1 [Compound S10S15D5] | 9.4% | 3.7%
30 | CCCCCCCCCCCCCCCSc1nc(NCCCN(C)C)nc(SCCCCCCCCCC)n1 [Compound S10S15D6] | 24.6% | 32.8%
31 | CCCCCCCCCCCCCCCSc1nc(NCCN(CC)CC)nc(SCCCCCCCCCC)n1 [Compound S10S15D7] | 0.0% | 7.2%
32 | CCCCCCCCCCCCCCCSc1nc(NCCCN2CCOCC2)nc(SCCCCCCCCCC)n1 [Compound S10S15D8] | 11.1% | 15.2%
